# Measurements taken from patent publication US20110060045A1, “ANTI-DIABETIC CATARACT COMPOUNDS AND THEIR USES” (NATIONAL RESEARCH COUNCIL OF CANADA, priority 2006, published 2011).
# Several values for one entry are separate records, joined by “and”; a condition that tells them apart may be missing. Equal values may be shown once. Read-outs that look alike come from different tables or passages of the source.
# Experiments:
# dog = settings: intravenous injection, compared with (R,S)-isoproterenol; cited from earlier work
# [1] = target: T1, bovine serum albumin (BSA) with D-ribose (Bos taurus, UniProt P02769); assay: Maillard fluorescence-based anti-glycation assay; settings: in vitro anti-glycation; for IC50: BSA 0.075 mM, D-ribose 50 mM, 37° C., 5 days; for Imax: maximum inhibition of Maillard fluorescence
# Description: (§3) The Maillard fluorescence-based assay was used to screen anti-glycation activity of approximately 1,300 drugs or drug candidates. […] Briefly the assay involved incubation of bovine serum albumin (BSA) (0.075 mM) with D-ribose (50 mM) and an assay compound (0.47, 4.7 and 47 μg/mL). Solutions were incubated at 37° C. for 5 days.
# human eye = settings: cited from earlier work
# [2] = better than epinephrine; cited from earlier work
# [3] = target: T1, bovine serum albumin (BSA) with D-ribose; assay: biochemical
# Description: as §3
# [4] = Body weight of non-diabetic and diabetic rats; type: in vivo, rat
# Description: (§1) Eye drops or vehicle were administered twice a day, seven days a week, on the cornea of different groups of rats, with a minimum interval of 7 h between the two treatments. To promote weight gain and limit hyperglycemia, diabetic rats were injected sub-cutaneously with 2 IU ultralente insulin (Humulin, Eli Lilly, Toronto, ON, Canada) three times a week. Animal weights were monitored every week.
# PC12 cells [5] = assay: Anti-oxidant activity against oxidative stress by H2O2 at the cellular level; type: cell-based; settings: 10-100 μM; H2O2 killed over 80% of the PC12 cells
# Excerpt: Glycation includes oxidative processes and is closely related to oxidative stress. […] The oxidative stress by H2O2 induces apoptosis in vitro and in vivo, and effective anti-oxidants such as N-acetyl-cysteine reduces the oxidative stress and protects the cells from the apoptosis.
# human eyes = settings: cited from earlier work
# [6] = large intravenous dose; cited from earlier work
# PC12 cells [7] = assay: Cytotoxicity in PC12 cells (MTT assay); type: cell-based
# Description: The cytotoxicity of (S)-isoproterenol dipivalate was measured by using PC12 cells. […] PC12 cells were seeded onto rat-tail collagen coated 96-well plates at a density of 2×10^4 cells/well and cultivated for one day. On the day of the experiment, dilutions of (S)-isoproterenol dipivalate ranging from 100 μM to 10 mM were prepared in complete medium. […] At the end of the incubation times, the medium was aspirated and 100 μL of a solution of MTT (3-(4,5-dimethylthiazol-2-yl)-2,5-diphenyltetrazolium; 0.2 mg/ml in complete medium) was added to the cells. After incubation at 37° C. for 2 hours, MTT was removed and the colored formazan was dissolved in dimethyl sulfoxide (DMSO) (½ hour at 37° C.). Reduction was measured by colorimetric detection (595 nm) of the blue insoluble formazan product. This assay provides an estimate of the number of functioning mitochondria present in the cells; i.e. the quantity of formazan product is directly proportional to the number of metabolically active cells in the culture. The viability of PC12 cells in each well was presented as percentage of control cells.
# [8] = system: Streptozotocin-injected diabetic rats; assay: Diabetic cataract initiation and progression in Streptozotocin-injected rats, eye drops; type: in vivo, rat; settings: for Time entered in level 4 / Time stayed in level 0 / Time stayed in level 1 / Time stayed in level 2 / Time stayed in level 3: individual diabetic rats with drug; for Time entered in level 4 / Time stayed in level 0 / Time stayed in level 1 / Time stayed in level 2 / Time stayed in level 3 / Time stayed in level 0 (cataract initiation), Av ± STD / Time stayed in level 1, Av ± STD / Time stayed in level 2, Av ± STD / Time stayed in level 3, Av ± STD: hydrochloride; for Time stayed in level 0 (cataract initiation), Av ± STD / Time stayed in level 1, Av ± STD / Time stayed in level 2, Av ± STD / Time stayed in level 3, Av ± STD: diabetic rats with drug, n=17, both eyes; for Time stayed in level 0 (cataract initiation), Av ± STD: 0.10% eye drop twice a day
# Excerpt: A rat model was used to study the effect of (S)-isoproterenol on diabetic cataract, that of streptozotocin-injection to induce diabetes by destroying the β-cells of the pancreas. This model has been widely used to study diabetes-related pathological events and their possible treatments (Dagher et al., 2004; Ben-nun et al., 2004; Chung et al., 2005). The rat model has an advantage of rapid formation of diabetic cataract such that initial cataract was observed as early as 8-9 weeks in the majority of the control diabetic rats. Two-month-old male Sprague-Dawley rats were purchased from Charles River, Canada. They were housed in the Biotechnology Research Institute (BRI)—animal facility. Housing and all experimental manipulations were approved by the BRI Animal Care Committee that functions under the guidelines of the Canadian Council of Animal Care.
# (§2) The pH of the eye drop was adjusted to 5.5 with 1N—HCl. […] The eye drop was freshly prepared every month and was stored at 4° C. […] The size of each eye drop was 50 μL.
# Diabetes was induced in male Sprague-Dawley rats weighing approximately 200 to 250 g by a single intraperitoneal injection of the beta-cell toxin, Streptozotocin (STZ) (Sigma, St. Louis, […].), at a dose of 60 mg/kg body weight in 0.1M citrate buffer pH 4.5. Non-diabetic control rats received citrate buffer only.
# as §1
# Cataract progression was monitored by visual examination, twice a week. A scoring system was devised to evaluate the severity of the cataract. A healthy eye was given a score of 0 (normal level); when a faint pinkish hue was discernable (level 1), cataract formation was in its earliest stage of being visually detected and this stage was given a score of 1. When a white film is clearly detectable (level 2), a score of 2 was assigned. When the film covers the entire eye, but the pupils are still visible (level 3), a score of 3 was assigned, and finally the cataract was considered most severe (score of 4) when the pupil was not detected due to the formation of the white film (level 4).
# [9] = Storage stability of the eye drop (HPLC profiles); type: physicochemical; settings: eye drop pH 5.5, one month of storage at 4° C.
# Description: as §2
# [10] = system: human corneal epithelial cells (HCEC cells); settings: human cornea epithelial cells, under the microscope
# Description: HCEC cells were grown in EpiLife medium supplemented with human corneal growth supplements (HCGS; Cascade Biologics). The cells were maintained at 37° C. in a humidified atmosphere containing 5% CO2 and the medium was changed every other day. HCEC cells were seeded onto 96-well plates at a density of approximately 10^3 cells/well and cultivated for one day. […] The medium was aspirated and the treatments were applied to the cells (in triplicates) for different incubation times (5 minutes to 2 hours and 24 hours). At the end of the incubation times, the survival of the cells was visually examined under microscope.
# [11] = pKa of the aromatic dihydroxyl group; type: physicochemical
# [12] = 2.47% instilled to normal human eyes (Bonomi 1964)
# T1 sequence (P02769 25-607): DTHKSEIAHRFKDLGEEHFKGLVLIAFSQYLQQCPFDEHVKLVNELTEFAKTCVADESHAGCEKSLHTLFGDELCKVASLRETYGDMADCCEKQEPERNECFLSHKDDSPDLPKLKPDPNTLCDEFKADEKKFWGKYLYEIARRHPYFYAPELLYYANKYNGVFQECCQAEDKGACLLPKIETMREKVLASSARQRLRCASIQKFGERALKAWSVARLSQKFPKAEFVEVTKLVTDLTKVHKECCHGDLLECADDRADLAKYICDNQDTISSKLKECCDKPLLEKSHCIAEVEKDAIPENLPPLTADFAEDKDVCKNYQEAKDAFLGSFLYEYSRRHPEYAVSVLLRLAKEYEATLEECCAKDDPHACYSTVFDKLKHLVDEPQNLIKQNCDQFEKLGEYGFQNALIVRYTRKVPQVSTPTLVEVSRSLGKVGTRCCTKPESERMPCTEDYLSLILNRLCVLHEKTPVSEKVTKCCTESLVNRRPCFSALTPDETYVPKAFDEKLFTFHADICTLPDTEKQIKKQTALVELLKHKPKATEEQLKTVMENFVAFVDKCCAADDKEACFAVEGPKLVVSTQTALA
molecule,measurement,setting,value
CC(C)NCC(O)c1ccc(OC(=O)C(C)(C)C)c(OC(=O)C(C)(C)C)c1 (racemic),cardiovascular effect,dog,did not produce any unique cardiovascular effect
"CNCC(O)c1ccc(O)c(O)c1 (racemic) [(R,S)-Epinephrine]",IC50,[1],17 ± 1.1 µM
same,Imax,[1],82%
"CC(C)NCC(O)c1ccc(O)c(O)c1 (racemic) [(R,S)-isoproterenol]",duration of reduction in ocular tension,human eye; [12],at least 12 h
same,reduction in ocular tension,human eye; [12],20%
"CNCC(O)c1ccc(OC(=O)C(C)(C)C)c(OC(=O)C(C)(C)C)c1 (racemic) [Dipivefrin, (R,S)-epinephrine dipivalate]",enhancement of ocular absorption,[2],17 time
CC(C)NC[C@H](O)c1ccc(O)c(O)c1 [(R)-Isoproterenol],IC50,[3],18.1 ± 1.1 µM
same,Imax,[1],86%
NC[C@H](O)c1ccc(O)c(O)c1 [(R)-Norepinephrine],IC50,[1],39.6 ± 3.4 µM
same,Imax,[1],92%
"CC(C)NC[C@@H](O)c1ccc(O)c(O)c1.O=C(O)C(O)C(O)C(=O)O [(S)-Isoproterenol, (S)-isoproterenol bitartrate]",effect on weight gain/loss,"[4]; diabetic rats, Group IV vs Group III",no effect
same,effect on weight gain/loss,"[4]; non-diabetic rats, Group II vs Group I",no effect
same,protective effect against H2O2 oxidative stress,PC12 cells [5],did not show any protective effect
same,effect on blood glucose level and diabetes,Groups I vs II and III vs IV,does not affect the blood glucose level
same,ocular adverse effects,"human eyes; eye drop, 10%, human eyes",only brief mild conjunctival hyperemia and irritation
same,effects on blood pressure and pulse rate,[6],only slight and transient effects on blood pressure and pulse rate
same,IC50,[1],16.8 ± 0.8 µM
same,Imax,[1],81%
NC[C@@H](O)c1ccc(O)c(O)c1 [(S)-Norepinephrine],IC50,[1],40.3 ± 4.7 µM
same,Imax,[1],93%
"CC(C)NC[C@@H](O)c1ccc(O)c(O)c1.Cl [(S)-isoproterenol HCl, (S)-isoproterenol hydrochloride]",ocular adverse effects,"human eyes; topical administration of 20%, persisted for several hours",marked conjunctival hyperemia and mild miosis
same,effect on intra-ocular pressure,"human eye; topical administration of up to 20%, human eye",did not show any indication to lower intra-ocular pressure
"CC(C)NC[C@@H](O)c1ccc(OC(=O)C(C)(C)C)c(OC(=O)C(C)(C)C)c1.Cl [(S)-isoproterenol dipivalate, (S)-isoproterenol dipivalate hydrochloride]",tolerance of PC12 cells,"PC12 cells [7]; longer incubation up to 24 h, minimum media (data not shown)",500 µM
same,concentration PC12 cells were tolerant to,PC12 cells [7]; short incubation up to 2 hr,up to 500 μM
same,Time entered in level 4,[8]; Left eye,14.5 week and 19.5 week and 19 week (2×) and 16 week and 18.5 week and 20.5 week (2×) and 8 week and 22 week
same,Time stayed in level 0,[8]; Left eye,8 week (6×) and 9 week (3×) and 14 week and 18 week and >30 week (4×) and >23 week and 12 week
same,Time stayed in level 1,[8]; Left eye,1 week (4×) and 2.5 week and 2 week (3×) and 0.5 week (2×) and 3 week (2×)
same,Time stayed in level 2,[8]; Left eye,2 week (5×) and 1 week and 1.5 week (2×) and 0.5 week (2×) and 2.5 week and 5 week
same,Time stayed in level 3,[8]; Left eye,2.5 week and 7.5 week and 5.5 week and 3 week and 3.5 week and 7 week and 8 week and 4 week and 5 week and 6.5 week
same,Time entered in level 4,[8]; Right eye,14.5 week and 19.5 week and 19 week (3×) and 15.5 week and 20.5 week (2×) and 8 week and 22 week
same,Time stayed in level 0,[8]; Right eye,8 week (7×) and 13 week and 18.5 week (2×) and 17 week and >30 week (2×) and 18 week and 14 week and 11.5 week and 12 week
same,Time stayed in level 1,[8]; Right eye,1 week (7×) and 0.5 week (5×) and 2.5 week and 2 week and 0 week
same,Time stayed in level 2,[8]; Right eye,2 week (7×) and 0.5 week (2×) and 1.5 week and 1 week (2×) and 5 week and 2.5 week (2×)
same,Time stayed in level 3,[8]; Right eye,2.5 week and 7.5 week and 7 week (2×) and 4 week (2×) and 3 week and 8 week and 6.5 week (2×)
same,"Time stayed in level 0 (cataract initiation), Av ± STD",[8],15.0±8.3 week
same,"Time stayed in level 0 (cataract initiation), Av ± STD",[8]; listed as drug,>15.0 ± 8.3 week
same,"Time stayed in level 1, Av ± STD",[8],1.24 ± 0.82 week
same,"Time stayed in level 2, Av ± STD",[8],1.88 ± 1.09 week
same,"Time stayed in level 3, Av ± STD",[8],5.4 ± 1.9 week
same,"Time stayed in level 1, Av ± STD",[8]; listed as prodrug,1.24±0.82 week
same,"Time stayed in level 2, Av ± STD",[8]; listed as prodrug,1.88±1.09 week
same,"Time stayed in level 3, Av ± STD",[8]; listed as prodrug,5.4±1.9 week
same,percentage of eyes initiating cataract,[8]; eyes initiating at 8.6±1.2 weeks,53%
same,percentage of eyes initiating cataract,[8]; eyes initiating at 17.1±3.1 weeks,26%
same,percentage of eyes initiating cataract,[8]; eyes initiating at >30 weeks (except one eye >23 weeks),21%
same,time of cataract initiation,"[8]; first subgroup, 53% of the eyes",8.6±1.2 weeks
same,time of cataract initiation,"[8]; second subgroup, 26% of the eyes",17.1±3.1 weeks
same,time of cataract initiation,"[8]; third subgroup, 21% of the eyes",> 30 weeks
same,protective effect against H2O2 oxidative stress,PC12 cells [5],did not show any protective effect
same,degradation on storage,[9],No degradation
same,concentration with no visibly noticed cytotoxicity,[10],up to 25 mM
same,blood glucose level,"Group II, non-diabetic rats receiving prodrug, 27 week period",5.1 ± 0.4 mM
same,blood glucose level,"Group IV, diabetic rats receiving prodrug, stabilized level",27 ± 5 mM
CC(C)NCC(O)c1ccc(O)c(O)c1 (centres unmarked) [isoproterenol],pKa,[11],8.72 ± 0.05
(R)-Epinephrine,IC50,[1],15.5 ± 1.7 µM
same,Imax,[1],83%
